Data reported in patent US20150051246A1 (priority 2013, published 2015).

What was measured:
[1] = format: in vivo, human; conditions: human, in vivo
Excerpt: (§1) An interim analysis has been performed based on the data of 9 subjects of the Impaired Elderly group and 4 subjects of the Healthy Elderly group. For this purpose, cognitive battery test scores (VLT, SMT, Stroop task and BL-VAS) and concentrations of roflumilast and roflumilast-N-oxide in plasma have been analysed and summarized by dose over each scheduled sampling time using descriptive statistics.

healthy adults = test: EEG Event Related Potentials (P300, N400, P600) during VLT in healthy adults; format: in vivo, human; conditions: for ERP P600 amplitude (in words): 100 mcg, during VLT
Procedure: An electroencephalogram (EEG) cap was used to place a set of 32 EEG electrodes according to the international 10-20 system on the subjects. Event Related Potentials (ERPs) were extracted by averaging the responses within an epoch of 100 ms before and 1000 ms after stimulus onset covering P300, N400, and P600. Separate averages were made for correct and incorrect responses within a task and for different trial types. EEG measurements were done simultaneously with VLT testing. ERPs were calculated from the words that were called during immediate recall (encoding), and from the words that were recognized and from those that were not during the recognition condition at 45 minutes. The ERP components of P300, N400, and P600 were compared to examine whether the initial stimulus processing during the learning trials differs from word to word. Finally, ERPs to the old and new items during the recognition task were measured.
Statistical Data Analyses Human data was analyzed using IBM SPSS Statistics version 20. General Linear Models for repeated measures were applied with the placebo condition included as contrast. Statistical outcomes for Tests of Within-Subjects Effects and Tests of Within-Subjects Contrasts were regarded for immediate and delayed free recall scores and for the summed immediate recall score (i.e. immediate 1+immediate 2+immediate 3). The factor Treatment (4 levels; placebo, roflumilast 100 mcg, roflumilast 300 mcg and roflumilast 1000 mcg) was included as a within subjects factor. For the analysis of the EEG data, the factor Channel (5 levels; Fz, FCz, Cz, CPz, and Pz) was included as a second within subjects factor. Peak and latency values of three memory related ERP's were analysed; i.e. P300, N400 and P600. In case of significant findings (p<0.05) post-hoc t-tests were performed to reveal which of the five midline electrodes contributed to the effect

[2] = test system: 60 to 80 years old subjects; test: Bond-Lader Visual Analogue Scales (BL-VAS) in elderly subjects; format: in vivo, human; conditions: 45 min after the low dose
Excerpt: Bond-Lader Visual Analogue Scales (BL-VAS): The BL-VAS (Bond A and Lader M, 1974; Br J Med Psycho) Vol 47, pp. 211-218) will be used in order to assess alertness, calmness, and contentedness. BL-VAS consists of 16 100 mm visual analogue scales anchored by antonyms (e.g. Alert-Drowsy, Lethargic-Energetic; etc) and be applied on testing Day 1 and 2 of each treatment period.
as §1

[3] = test system: 60 to 80 years old subjects (Impaired Elderly and Healthy Elderly); test: Verbal Learning Task (VLT) in 60 to 80 years old subjects, interim analysis; format: in vivo, human
Procedure: The study is conducted according to a double-blind, placebo-controlled, four-period cross-over design. Forty healthy subjects, both male and female within an age range of 60 to 80 years are planned to be included in the study in two groups: 1) 20 subjects with a memory performance between 1-2 Standard Deviation below the average for their age, gender, and educated level (Impaired Elderly) and 2) 20 subjects with age (±3 years), gender, and educational level matched (in order to speed up the study matching was stopped after the interim analysis) with an average memory performance between 0.5 Standard Deviation below and 0.5 Standard Deviation above from normative values (Healthy Elderly). Classification in terms of impaired or healthy elderly will be determined by a one-off testing of memory performance using the Rey Verbal Learning Task (Rey A; L'examen psychologique dans les cas d'encephalopathy traumatique 1958 Paris; Presses Universitaire de France; or Van der Elst et al; J Int Neuropsychol Soc 2005, 11 (3), pp 290-302) according to fully standardized procedures as applied in The Maastricht Aging Study (Jolles et al; Maastricht Aging Study; determinants of cognitive aging; Maastricht, The Netherlands, Neuropsych Publishers 1995). Normative data for each individual subject will be derived also from the Maastricht Aging Study using the regression formula as described by Van der Elst et al (Van der Elst et al; J Int Neuropsychol Soc 2005, 11 (3), pp 290-302).
All subjects within their corresponding groups (either Healthy Elderly n=20 or Impaired Elderly n=20) will be randomized in a double blind fashion to 1 of 4 treatment sequences, each sequence consisting of the following periods: A) Placebo+placebo; B) Roflumilast 100 mcg+placebo; C) Roflumilast […]+placebo and D) Roflumilast 1000 mcg (500+500 mcg) according to a computer-generated allocation schedule in a cross-over design. Between each of the four treatment sequences there will be a 12 days washout period.
Verbal learning task (VLT) The Rey VLT as modified by Riedel and colleagues (Riedel, Klaasen et al, Psychopharmacology (Berlin) 1999 Vol 141(4) pp 362-369) is used. This modified VLT maximizes the possibility of measuring enhancement rather than only impairment, by means of prolonging the list. The test consists of a list of 30 monosyllabic words (18 nouns and 12 adjectives). The words are shown on a computer screen for 1 second. Three trials with the same item sequence are presented. Each trial ends with a free recall of the words (immediate recall). Forty-five minutes after the first exposure, the subject is asked to recall as many words as possible (delayed recall). […] The words are shown on a computer screen for 2 seconds and subjects are asked to rate whether they were presented in the learning trial by a “yes/no” response. The inter-word interval is 2 seconds. 24 Hours after the immediate recall, subjects will return to the lab for a second delayed recall and recognition. […] EEG will be recorded during the immediate recall and the first recognition test on the test day. […]
as §1, with “statistics. […]” for “statistics.”

[4] = test system: xylazine/ketamine induced α2-adrenergic receptor-mediated anesthesia; conditions: in vivo, 3 mg/kg
Excerpt: Since emesis is a typical side-effect of PDE4 inhibitors the emetic potential of roflumilast and rolipram was investigated in parallel using the xylazine/ketamine induced α2-adrenergic receptor-mediated anesthesia test. The results confirmed that the two phosphodiesterase 4 inhibitors have different effects on emesis.

O=C(Nc1c(Cl)cncc1Cl)c1ccc(OC(F)F)c(OCC2CC2)c1 [roflumilast, N-(3,5-dichloropyridin-4-yl)-3-cyclopropylmethoxy-4-difluoromethoxybenzamide]
exposure [1]: consistent with those previously reported | ERP P600 amplitude (in words) (healthy adults): strongest increase of amplitude | ERP P600 amplitude (in words) (healthy adults; listed as Roflumilast): increased amplitude | ERP P600 (in words) (healthy adults; 300 mcg and 1000 mcg, FIG. 3): some effect | (subjective) alertness in comparison with placebo, BL-VAS scores [2]: significantly higher (subjective) alertness | increase in number of correct words, 45 min delayed recall, compared to placebo ([3]; 100 mcg): 1.7 words | placebo-corrected fold-improvement ([3]; 100 mcg, 3rd trial, interim data elderly study): 1.16 | increase in number of correct words immediately recalled, compared to placebo ([3]; 100 mcg, after 3rd trial): 1.5 words | number of words on the 3rd trial ([3]; 100 mcg, elderly subjects): 10.28 words | increase in number of correct words, 45 min delayed recall, compared to placebo ([3]; 1000 mcg): 1.6 words | emetic potential [4]: tendency towards emetic potential
